Experimental data: patent US12528761B2, “Thyromimetics” (Autobahn Therapeutics, Inc., priority 2020, dated 2026)

Molecular target: T1, recombinant human FAAH (rhFAAH) (Homo sapiens, UniProt O00519)
T1 construct: purchased Cayman Chemical (Ann Arbor, MI, USA)
T1 sequence (O00519 1-579): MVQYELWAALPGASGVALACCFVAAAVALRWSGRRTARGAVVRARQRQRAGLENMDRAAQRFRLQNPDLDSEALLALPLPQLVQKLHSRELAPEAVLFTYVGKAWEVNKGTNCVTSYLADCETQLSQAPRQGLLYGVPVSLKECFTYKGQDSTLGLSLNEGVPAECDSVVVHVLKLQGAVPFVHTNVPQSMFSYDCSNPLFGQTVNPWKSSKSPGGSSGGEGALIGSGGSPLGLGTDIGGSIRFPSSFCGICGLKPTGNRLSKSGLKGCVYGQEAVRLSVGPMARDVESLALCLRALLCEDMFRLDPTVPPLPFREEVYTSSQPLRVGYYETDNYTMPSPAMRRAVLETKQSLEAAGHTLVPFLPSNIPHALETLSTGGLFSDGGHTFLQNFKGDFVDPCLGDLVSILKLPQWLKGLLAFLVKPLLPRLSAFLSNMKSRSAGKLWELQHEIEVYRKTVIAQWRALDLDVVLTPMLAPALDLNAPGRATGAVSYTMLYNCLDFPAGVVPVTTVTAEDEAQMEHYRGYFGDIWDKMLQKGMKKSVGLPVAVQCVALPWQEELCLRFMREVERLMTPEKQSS
Assay: FAAH substrate evaluation (formation of acid metabolite, LC-MS/MS)
Type: biochemical
Set-up: key: A: ke is equal to or less than 1.0; B: ke is greater than 1.0 and less than or equal to 2.5; C: ke is greater than 2.5; NC: no conversion
Settings: 0.5 ng/μL rhFAAH, 1 μM test compound, pH 8.0, room temperature, 0-60 minutes
Experimental: Purified recombinant human FAAH (rhFAAH) was purchased from Cayman Chemical (Ann Arbor, MI, USA). The total volume for each incubation was 400 μL containing a final 0.5 ng/μL rhFAAH, 1 μM test compound, 1.25% ethanol or 1 μM PF-3845 (FAAH inhibitor), and 0.1% bovine serum albumin in Tris-EDTA buffer at pH 8.0). The positive control was LL-341001. The incubation was conducted at the room temperature. At 0, 5, 15, 30 and 60 minutes, an aliquot of 30 μL reaction mixtures was removed and mixed with 300 μL acetonitrile containing 5 ng/mL terfenadine and 10 ng/mL tolbutamide as internal standards to quench the reaction. The resulting mixture was centrifuged at 4000 rpm, 4° C. for 15 minutes, and 100 μL supernatant was ready for LC-MS/MS analysis to measure the formation of acid metabolite.
Acquity Ultra Performance LC system from Waters was used for sample analysis. The chromatography was performed on a reverse phase Kinetex 2.6 μm C18 column, 2.1×30 mm, 100 Å. The mobile phase A comprised of 0.1% formic acid in water and mobile phase B comprised of 0.1% formic acid in acetonitrile with a 2-min run time at the flow rate of 0.8 mL/min for the acid metabolite from positive control or a 1.5 min run time at the flow rate of 0.9 mL/min for the acid metabolite of test compounds. The mass spectrometer (API-5500 and API Q Trap 4000 Applied Biosystems/MDS SCIEX Instruments, Framingham, MA, USA) was operated under ESI positive or negative ion MRM mode.
The formation of acid metabolite was monitored and quantified using one calibration point of 1 μM. The observed rate constant (ke) for the acid metabolite formation was calculated by plotting the metabolite concentration versus time of incubation with the slope being ke and is shown in Table 4.

Structure (SMILES) | ke, observed rate constant for the acid metabolite formation
CC(C)c1cc(Cc2c(Cl)cc(SCC(=O)NCC3CC3)cc2Cl)ccc1O [Compound 181, N-(cyclopropylmethyl)-2-((3,5-dichloro-4-(4-hydroxy-3-isopropylbenzyl)phenyl)thio)acetamide] | A (ke is equal to or less than 1.0)
CC(C)c1cc(Cc2c(Cl)cc(SCC(=O)N(C)C)cc2Cl)ccc1O [Compound 194, 2-((3,5-dichloro-4-(4-hydroxy-3-isopropylbenzyl)phenyl)thio)-N,N-dimethylacetamide] | NC
CC(C)c1c(O)ccc(Cc2c(Cl)cc(NCC(N)=O)c(F)c2Cl)c1F [Compound 163, 2-((3,5-dichloro-2-fluoro-4-(2-fluoro-4-hydroxy-3-isopropylbenzyl)phenyl)amino)acetamide] | A (ke is equal to or less than 1.0)
CNC(=O)CCc1cc(Cl)c(Cc2ccc(O)c(C(C)C)c2)c(Cl)c1 [Compound 12, 3-(3,5-dichloro-4-(4-hydroxy-3-isopropylbenzyl)phenyl)-N-methylpropanamide] | A (ke is equal to or less than 1.0)
CNC(=O)CSc1cc(C)c(Cc2ccc(O)c(C(C)C)c2F)c(Cl)c1 [Compound 233, 2-((3-chloro-4-(2-fluoro-4-hydroxy-3-isopropylbenzyl)-5-methylphenyl)thio)-N-methylacetamide] | C (ke is greater than 2.5)
CNC(=O)CCc1cc(Cl)c(Cc2ccc(O)c(C(C)C)c2F)c(Cl)c1 [Compound 41, 3-(3,5-dichloro-4-(2-fluoro-4-hydroxy-3-isopropylbenzyl)phenyl)-N-methylpropanamide] | A (ke is equal to or less than 1.0)
CNC(=O)CSc1cc(Cl)c(Cc2ccc(O)c(C(C)C)c2)c(Cl)c1F [Compound 190, 2-((3,5-dichloro-2-fluoro-4-(4-hydroxy-3-isopropylbenzyl)phenyl)thio)-N-methylacetamide] | B (ke is greater than 1.0 and less than or equal to 2.5)
CC(C)c1cc(Cc2c(Cl)cc(SCC(=O)N3CCCC3)cc2Cl)ccc1O [Compound 182, 2-((3,5-dichloro-4-(4-hydroxy-3-isopropylbenzyl)phenyl)thio)-1-(pyrrolidin-1-yl)ethan-1-one] | A (ke is equal to or less than 1.0)
CC(C)c1cc(Cc2c(Cl)cc(SCC(=O)Nc3ccncc3)cc2Cl)ccc1O [Compound 172, 2-((3,5-dichloro-4-(4-hydroxy-3-isopropylbenzyl)phenyl)thio)-N-(pyridin-4-yl)acetamide] | C (ke is greater than 2.5)
CNC(=O)CNc1cc(C)c(Cc2ccc(O)c(C(C)C)c2)c(Cl)c1F [Compound 135, 2-((3-chloro-2-fluoro-4-(4-hydroxy-3-isopropylbenzyl)-5-methylphenyl)amino)-N-methylacetamide] | A (ke is equal to or less than 1.0)
CC(C)c1c(O)ccc(Cc2c(Cl)cc(NCC(=O)Nc3ccncc3)c(F)c2Cl)c1F [Compound 161, 2-((3,5-dichloro-2-fluoro-4-(2-fluoro-4-hydroxy-3-isopropylbenzyl)phenyl)amino)-N-(pyridin-4-yl)acetamide] | B (ke is greater than 1.0 and less than or equal to 2.5)
COc1ccc(NC(=O)CNc2cc(Cl)c(Cc3ccc(O)c(C(C)C)c3F)c(Cl)c2F)cn1 [Compound 158, 2-((3,5-dichloro-2-fluoro-4-(2-fluoro-4-hydroxy-3-isopropylbenzyl)phenyl)amino)-N-(6-methoxypyridin-3-yl)acetamide] | B (ke is greater than 1.0 and less than or equal to 2.5)
CNC(=O)CSc1cc(Cl)c(Cc2ccc(O)c(C(C)C)c2)c(C)c1F [Compound 220, 2-((5-chloro-2-fluoro-4-(4-hydroxy-3-isopropylbenzyl)-3-methylphenyl)thio)-N-methylacetamide] | NC
CC(C)c1c(O)ccc(Cc2c(Cl)cc(NCC(=O)N[C@@H]3C[C@@H]3F)c(F)c2Cl)c1F [Compound 156, 2-((3,5-dichloro-2-fluoro-4-(2-fluoro-4-hydroxy-3-isopropylbenzyl)phenyl)amino)-N-((1R,2S)-2-fluorocyclopropyl)acetamide] | A (ke is equal to or less than 1.0)
Cc1cc(CSCC(=O)N(C)C)cc(Cl)c1Cc1ccc(O)c(C(C)C)c1 [Compound 231, 2-((3-chloro-4-(4-hydroxy-3-isopropylbenzyl)-5-methylbenzyl)thio)-N,N-dimethylacetamide] | A (ke is equal to or less than 1.0)
CNC(=O)CCc1cc(Cl)c(Cc2ccc(O)c(C(C)C)c2)c(Cl)c1F [Compound 66, 3-(3,5-dichloro-2-fluoro-4-(4-hydroxy-3-isopropylbenzyl)phenyl)-N-methylpropanamide] | A (ke is equal to or less than 1.0)
CNC(=O)CSc1cc(C)c(Cc2ccc(O)c(C(C)C)c2)c(Cl)c1 [Compound 242, 2-((3-chloro-4-(4-hydroxy-3-isopropylbenzyl)-5-methylphenyl)thio)-N-methylacetamide] | B (ke is greater than 1.0 and less than or equal to 2.5)
CNC(=O)CCc1cc(Cl)c(Cc2ccc(O)c(C(C)C)c2F)c(Cl)c1F [Compound 72, 3-(3,5-dichloro-2-fluoro-4-(2-fluoro-4-hydroxy-3-isopropylbenzyl)phenyl)-N-methylpropanamide] | A (ke is equal to or less than 1.0)
CC(C)c1c(O)ccc(Cc2c(Cl)cc(NCC(=O)Nc3cccnn3)c(F)c2Cl)c1F [Compound 157, 2-((3,5-dichloro-2-fluoro-4-(2-fluoro-4-hydroxy-3-isopropylbenzyl)phenyl)amino)-N-(pyridazin-3-yl)acetamide] | B (ke is greater than 1.0 and less than or equal to 2.5)
CNC(=O)/C(C)=C/c1cc(Cl)c(Cc2ccc(O)c(C(C)C)c2F)c(Cl)c1 [Compound 146, (E)-3-(3,5-dichloro-4-(2-fluoro-4-hydroxy-3-isopropylbenzyl)phenyl)-N,2-dimethylacrylamide] | A (ke is equal to or less than 1.0)
CC(C)c1cc(Cc2c(Cl)cc(SCC(=O)N3CCC3)cc2Cl)ccc1O [Compound 183, 1-(azetidin-1-yl)-2-((3,5-dichloro-4-(4-hydroxy-3-isopropylbenzyl)phenyl)thio)ethan-1-one] | A (ke is equal to or less than 1.0)
CNC(=O)CNc1cc(Cl)c(Cc2ccc(O)c(C(C)C)c2)c(Cl)c1F [Compound 76, 2-((3,5-dichloro-2-fluoro-4-(4-hydroxy-3-isopropylbenzyl)phenyl)amino)-N-methylacetamide] | A (ke is equal to or less than 1.0)
CNC(=O)/C=C/c1cc(C)c(Cc2ccc(O)c(C(C)C)c2F)c(Cl)c1 [Compound 239, (E)-3-(3-chloro-4-(2-fluoro-4-hydroxy-3-isopropylbenzyl)-5-methylphenyl)-N-methylacrylamide] | NC
CNC(=O)CNc1cc(Cl)c(Cc2ccc(O)c(C(C)C)c2F)c(C)c1F [Compound 136, 2-((5-chloro-2-fluoro-4-(2-fluoro-4-hydroxy-3-isopropylbenzyl)-3-methylphenyl)amino)-N-methylacetamide] | A (ke is equal to or less than 1.0)
